According to patent US7879914B2, “Methods for treating viral infections using polyamine analogs” (Pathlogica LLC, priority 2005, dated 2011):
“Also recorded” adds a separate entry of the source. Like-named read-outs stand apart in the source and are kept apart here.

Legend:
[1] = tested on: CD14/CD16+ blood macrophages from HIV positive patients; assay: Susceptibility assay: killing of CD14/CD16+ blood macrophages from HIV patients; assay type: cell-based; conditions: for EC50: Homo sapiens, Macrophage, advanced HIV disease, read-out: Mean ED50
Description: The following procedures/protocols were used in some of the examples that follow. All steps were performed in a biological safety cabinet using Universal Precautions for handling human blood samples and standard aseptic techniques.
Blood was drawn in heparinized tubes (green top Vacutainer tubes from Becton-Dickson) and Percol gradient separated into peripheral blood mononuclear cells (PBMCs), according to the following procedure. Aliquots of no more than 25 mL whole blood were transferred into clean, sterile, prelabeled 50 mL conical tubes. Using a sterile 25 mL pipet, equal volume of PBS (Mg^+2/Ca^+2 free) was added to the whole blood and the tubes were inverted 2 or 3 times. […] (For example: 10 mL whole blood +10 mL PBS.)
The diluted blood was slowly and carefully layered over the sterile Percol in amounts of 15-20 mL by holding the pipet at a 45 degree angle, relative to the Percol tube, and slowly dripping the diluted blood down the side of the tube. The resulting mixture was centrifuged at 2100 RPM for 30 minutes at 25° C. The buffy coat (i.e., the white layer between the yellow plasma on top and clear Percol solution below) so obtained was then slowly aspirated, taking care not to aspirate the Percol. The buffy coat was resuspended in sterile PBS (Mg^+2/Ca^+2 free) and the volume was brought up to 50 mL. The mixture was gently mixed by slowly pipetting up and down 3 times and the cell suspension was centrifuged at 1500 RPM for 10 minutes at 25° C. The supernatant was discarded and the bottom of the tube gently tapped to dislodge the cell pellet.
The PBMC for the susceptibility assays was prepared in accordance with the following procedures. A cell culture medium was prepared by mixing RPMI+10% FBS+1% sodium pyruvate and filter sterilized using a filter unit with 0.22 micron pore size. The cell pellet was then resuspended in 3 ml of the cell culture medium. The suspension was gently mixed by slowly pipetting up and down 3 times. The cells were counted using a hemacytometer and the cell density was adjusted to 1×10^6 cells/mL in the cell culture medium, followed by mixing by slowly pipetting up and down 3 times. The cells were incubated in a 50 mL sterile polypropylene tube, at 37° C. and 5% CO2 for 1-2 days. The cap was loosened and the tubes were tipped to 30-45 degrees relative to the tray surface. A styrofoam tube rack was used to hold the tubes.
The MGBG drug was prepared in accordance with the following procedures. A primary stock of MGBG was prepared by weighing out enough MGBG to make a 1 molar (M) solution and dissolved in sterile PBS (Mg^+2/Ca^+2 free). The solution was vortexed until all of the MGBG had dissolved. A secondary stock (0.01 M) was prepared from a 1/100 dilution of the primary stock and filter sterilized by passing the solution through a 0.22 micron filter. A working stock (0.001 M or 1,000 microMolar) was prepared from a 1/10 dilution of the secondary stock. The CG47 drug was prepared by an identical procedure.
Drug doses for the susceptibility assays were prepared in accordance with the following procedures. Drug dilutions were prepared at 10-fold higher concentrations than the final desired concentrations. For example a 100 microMolar drug solution was made for a desired final concentration of 10 microMolar. The drugs were diluted an additional 1/10 upon addition to the cell suspension (e.g., 0.1 mL drug +0.9 mL cell suspension). The drug doses for the susceptibility assays were prepared right before use in cell culture media.
Susceptibility assays were conducted in accordance with the following procedures. The MGBG drug as added 1-2 days after PBMC was separated from whole blood. […]

[2] = tested on: HIV DNA associated with CD14 cells; assay: HIV DNA in isolated CD14 cells after ex vivo drug exposure, quantitative DNA PCR; assay type: cell-based
Description: Blood from patients with advanced HIV disease was Percol gradient separated into peripheral blood mononuclear cells (PBMCs) and 5 million cells from each specimen were exposed to a 1 μM concentration of MGBG or control saline for five days. […] After the five day incubation, CD14 immunomagnetic separation with a Miltenyi separation system was performed. Separated CD14 cells from treated and untreated control specimens were evaluated for the level of HIV DNA in each specimen. C-jun, single copy DNA controls were utilized in each specimen to provide the HIV DNA/genomic equivalent values as determined by quantitative DNA PCR analysis as described in Mack, K. D., et al. JAIDS (2003) 33: 308-20. […]
Blood from three patients with advanced HIV disease was Percol gradient separated into peripheral blood mononuclear cells (PBMC's) and 5 million cells from each specimen were exposed to a 10 micromolar concentration of the polyamine analog CG47 or control saline for 5 days. […] Separated CD14 cells from treated and untreated control specimens were evaluated for the level of HIV DNA in each specimen. C-jun, single copy DNA controls were utilized in each specimen to provide the HIV DNA/genomic equivalent values as determined by quantitative DNA PCR analysis as described in Mack et al. (JAIDS). […]

[3] = tested on: CD16+ monocytes; assay: Killing of CD16+ monocytes by polyamine biosynthesis inhibitors (Example 6); assay type: cell-based, human; conditions: for comparison of effectiveness of both PBIs: FIG. 6, 10 μM, five days
Description: Mononuclear cells were isolated from individuals with HIV infection, uninfected individuals or a patient with ALS and incubated in the absence or presence of increasing concentrations of the PBIs, MGBG (PA-001) and CG47. After five days in culture under non-adherent conditions cells were isolated stained with antibodies to CD14+ and CD16+ and counted by flow cytometry using a FACSCAN (BD-biosciences). The fraction of CD14+ monocytes that expressed CD16 was determined and compared to levels seen in the absence of drug.
Those samples that were relatively resistant to PBIs required 100 μM or more of drug to achieve similar levels of killing. […] Overall 65% to 80% of samples from individuals with HAND were sensitive (>70% killing with 10 μM PBI or less) to PBIs.
The overall results with mononuclear cells from HIV infected individuals, ALS patients, and healthy controls are shown in FIG. 6. […] The number of mononuclear cell samples evaluated in each category were as follows: ALS with PA-001 (MGBG)=6, and with CG47=28. Drug resistant HIV with PA-001=22, and with CG47=48. HAD with PA-001=9, and with CG47=5. Healthy with PA-001=24, and with CG47=15.

| SMILES | killing of CD14/16+ cells that contain HIV DNA ([1]; 1 μM) | killing of the CD14/CD16 blood macrophage population ([1]; 1 μM, five days, PBMCs of patients with advanced HIV disease) [%] | killing of HIV infected macrophages, dose dependence ([1]; HIV positive patients, FIG. 1) | killing of HIV-infected macrophages from HAD patients ([1]; HIV-associated dementia (HAD) patients, compared with HIV positive) | EC50 ([1]; MGBG, mean of 10 patients) [nM] | reduction in HIV DNA associated with CD14 cells (average) ([2]; 1 μM, five days) [%] | comparison of effectiveness of both PBIs [3] | killing of the CD14/CD16 blood macrophage population ([1]; 10 micromolar, 5 days, PBMCs of three patients with advanced HIV disease) [%] | sensitivity of CD14/CD16+ macrophages from the HIV patient ([1]; FIG. 4, ex vivo) | EC50 ([1]; CG47, mean of 13 patients) [nM] | reduction in HIV DNA associated with CD14 cells (average) ([2]; 10 micromolar, 5 days, three blood specimens) [%] | changes in lymphocyte levels ([3]; 10 μM or less) |
| --- | --- | --- | --- | --- | --- | --- | --- | --- | --- | --- | --- | --- |
| CC(/C=N/NC(=N)N)=N\NC(=N)N [MGBG] | Complete killing; also recorded: near quantitative | > 80 | dose-dependent | nearly as effective | 465 | > 99 | approximately equivalently effective | – | – | – | – | – |
| CCNCCCNC/C=C\CNCCCNCC.Cl.Cl.Cl.Cl [CG47, N,N′-bis(3-ethylaminopropyl)-cis-but-2-ene-1,4-diamine tetrahydrochloride] | – | – | – | – | – | – | approximately equivalently effective | > 80 | extremely sensitive | 3500 | > 90 | little or no changes |
